Results reported in patent publication US7790738B2, “Methods of treating and preventing AIDS using of COX-2 inhibitors” (Lauras AS, priority 2000, dated 2010).
Values joined by “and” are separate entries in the source; they are usually repeats but may differ in a detail not shown here. Equal entries are not always repeated. Where two headings read alike, the source gives them in different places. Marks after values point to notes of the source that are not given here.

Legend:
[1] = target: COX-1 (Homo sapiens, UniProt P23219); conditions: recombinant human PGH synthesis; Laneuvill et al. 1994; cited from earlier work
[2] = target: T1, COX-2 (Homo sapiens, UniProt P35354); conditions: cited from earlier work; for COX-2 selectivity COX-1/COX-2: ratio of IC50, recombinant human enzymes; for IC50: recombinant human PGH synthesis, Laneuvill et al. 1994, read-out: COX-2 IC50
T1 sequence (P35354 18-604): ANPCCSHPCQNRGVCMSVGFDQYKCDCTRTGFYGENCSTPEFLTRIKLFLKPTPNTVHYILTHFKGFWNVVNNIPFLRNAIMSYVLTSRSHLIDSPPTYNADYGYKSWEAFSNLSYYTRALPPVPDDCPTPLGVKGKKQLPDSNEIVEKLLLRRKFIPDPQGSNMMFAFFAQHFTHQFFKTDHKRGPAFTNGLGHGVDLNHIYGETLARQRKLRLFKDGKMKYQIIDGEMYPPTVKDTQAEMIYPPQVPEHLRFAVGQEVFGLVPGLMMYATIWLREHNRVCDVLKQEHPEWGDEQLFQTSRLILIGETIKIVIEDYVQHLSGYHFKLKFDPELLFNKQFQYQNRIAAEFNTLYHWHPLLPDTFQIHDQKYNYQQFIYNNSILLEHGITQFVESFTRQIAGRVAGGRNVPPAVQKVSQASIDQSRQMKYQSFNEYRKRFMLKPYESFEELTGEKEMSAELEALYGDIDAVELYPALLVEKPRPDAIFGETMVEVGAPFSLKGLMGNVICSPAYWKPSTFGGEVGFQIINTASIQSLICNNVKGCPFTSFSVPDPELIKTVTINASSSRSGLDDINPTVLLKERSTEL

[3] = target: T1, COX-2; conditions: cited from earlier work
[4] = system: CD3+ T cells from HIV infected patients; experiment: proliferation of HIV patient CD3+ T cells with cAMP antagonist added in vitro; assay type: cell-based, human
From the text: Bars show mean values±SD from triplicate determinations.
8-CPT-cAMP was from Sigma (St. Louis, Mo.).

[5] = system: CD3+ T cells from MAIDS and control mice; experiment: TCR/CD3 stimulated proliferation of isolated T cells, [3H]-thymidine incorporation; assay type: cell-based, mouse
Protocol: TCR/CD3 stimulated T cell proliferation was assessed with isolated T cells from MAIDS mice (A) and uninfected control mice (B). The effect of increasing concentrations of cAMP agonist (8-CPT-cAMP) on TCR/CD3 stimulated proliferation of CD3+ T cells isolated from MAIDS (open circles, dotted line) and control mice (filled circles and solid line) was examined separately in the same experiments (C). Mean values of triplicate determinations±SD are shown. See Table 4 for summarised data (n=11). Note: Scaling differs in A and B, whereas in C the TCR/CD3 induced proliferation in the absence of cAMP agonist is normalized to 100% for both MAIDS and control T cells;
Activation was achieved by subsequent addition of monodisperse magnetic beads coated with sheep anti-mouse IgG (Dynal, cat. no. 110.02) at a cell:bead ratio of 1:1 followed by addition of anti-CD3 (clone 2C11) at a final dilution of 4 μg/ml for the experiments shown. […] 8-CPT-cAMP was from Sigma (St. Louis, Mo.) and Sp- and Rp-8-Br-cAMPS were from BioLog Life Science Company (Bremen, Germany) and were all dissolved to concentrations of 4 to 10 mM in PBS and concentrations calculated using the extinction coefficients given by the manufacturer.

[6] = system: lymph node mononuclear cells from MAIDS and control mice; experiment: anti-CD3 induced T cell proliferation in mixed unsorted lymph node cells, compound added in vitro; assay type: cell-based, mouse
Protocol: T cell activation was accomplished by cross-ligation of anti-CD3 (mAb 2C11; 4 μg/ml). […] Cells were cultured for 72 h during which [^3H] -thymidine was included for the last 4 h;
T cell activation was accomplished by cross-ligation of anti-CD3 (mAb 2C11; 4 μg/ml). […] Cells were cultured for 72 h during which [^3H ]-thymidine was included for the last 4 h;
The optimal concentration of antibody was titrated carefully in the initial setup and parallel experiments at several different dilutions of antibody was always performed. Proliferation was analyzed by incubating cells for 72 hours during which [^3H]-thymidine (0.4 μCi) was included for the last 4 hours and collected with a cell harvester (Skatron, Sterling, Va., USA) onto glass fiber filters. Incorporated precursor was counted in a scintillation analyzer (Tri-Carb, Packard, Meriden, Conn., USA). cAMP analogs, when used, were added 30 min prior to activation by addition of anti-CD3 antibodies.

[7] = system: MAIDS mice; experiment: in vivo treatment of MAIDS mice, anti-CD3 induced T cell proliferation assessed in lymph node cells; set-up: species or system mouse; conditions: for increase of T cell responses to anti-CD3 versus untreated mice: intraperitoneal in intralipid, 18 to 20 days, rofecoxib 3, celecoxib 20 mg/kg/day
Protocol: Subsequently, T cell proliferative responses were assessed in vitro in a mixed population of unsorted lymph node mononuclear cells from treated and untreated animals by [^3H]-thymidine incorporation in the absence (columns A) and presence of Rp-8-Br-cAMPS (0.5 or 1.0 mM, columns B and C, respectively). T cell activation was accomplished in all samples by cross-ligation of anti-CD3 (mAb 2C11; 4 μg/ml). Control represents T cell proliferation in uninfected mice. Mean values from triplicate determinations are shown. Cells were cultured for 72 h during which [^3H]-thymidine was included for the last 4 hours;
Subsequently, T cell proliferative responses were assessed in vitro as described for FIG. 16 but without Rp-Br-cAMPs. Control represents T cell proliferation in uninfected mice. Mean values from triplicate determinations are shown (black circles) along with 25 to 75% percentile (boxed areas) and median (line in box). Bars represent range; and
Mean values±standard error of the mean (s.e.m.) from each group are shown. […] Statistics were analysed by Mann-Whitney U test for comparison of two groups of animals and with Wilcoxon Matched Pairs Test for comparison of the same group with two different treatments.
MAIDS mice normally develop an immunoproliferation syndrome with enlarged lymph nodes and spleen.
Parenteral administration was accomplished by intraperitoneally injecting Cox-2 inhibitors formulated in intralipid.

[8] = system: MAIDS mice; experiment: in vivo treatment of MAIDS mice, lymphoproliferation (spleen and lymph node weight); set-up: species or system mouse; conditions: MAIDS mice 17 weeks post-infection, per os 7 days, 3 mg/kg/day
[9] = target: COX-1 (Cavia porcellus, UniProt H0V9X9); conditions: read-out: COX-1 IC50; guinea pig macrophage model; Engelhart et al. 1995; cited from earlier work
[10] = system: HIV infected patients; experiment: phase II clinical trial, indomethacin in vivo, T cell proliferation after activation; conditions: for T cell immune function, patients responding: 7 patients
Protocol: T cell activation was accomplished by cross-ligation of anti-CD3 (mAb SpVT3b). […] Bars show mean values±SD from triplicate determinations. Cells were cultured for 72 h during which [^3H]-thymidine was included for the last 16 h;
Mean values from triplicate determinations are plotted, connector lines show development of each patient;
Peripheral blood CD3+ T cells were purified by negative selection from buffycoats from normal healthy donors (Ullevaal University Hospital Blood Center, Oslo, Norway). Briefly, peripheral blood mononuclear cells were isolated by density gradient (Lymphoprep, NycoMed, Oslo, Norway) centrifugation followed by negative selection using monodisperse magnetic beads directly coated with antibodies to CD14 and CD19 and rat anti-mouse IgG beads coated with antibodies to CD56 and a magnet. […] All steps were performed at 4° C.
Proliferation assays were performed by incubation of 0.75×10^6 CD3+ T cells/ml in a 100 μl volume in flat-bottom 96-well microtiter plates. […] The optimal concentration of antibody was titrated carefully in the initial setup and parallel experiments at several different dilutions of antibody were always performed. Proliferation was analyzed by incubating cells for 72 hours during which [^3H]-thymidine was included for the last 16 hours. Cells were washed and harvested onto glass filters and subsequently analyzed by β-scintillation counting. CAMP analogs, when used, were added 30 min prior to activation by addition of anti-CD3 antibodies. 8-CPT-cAMP was from Sigma (St. Louis, Mo.).

COX-1 (Homo sapiens, UniProt P23219), sequence (P23219 24-599): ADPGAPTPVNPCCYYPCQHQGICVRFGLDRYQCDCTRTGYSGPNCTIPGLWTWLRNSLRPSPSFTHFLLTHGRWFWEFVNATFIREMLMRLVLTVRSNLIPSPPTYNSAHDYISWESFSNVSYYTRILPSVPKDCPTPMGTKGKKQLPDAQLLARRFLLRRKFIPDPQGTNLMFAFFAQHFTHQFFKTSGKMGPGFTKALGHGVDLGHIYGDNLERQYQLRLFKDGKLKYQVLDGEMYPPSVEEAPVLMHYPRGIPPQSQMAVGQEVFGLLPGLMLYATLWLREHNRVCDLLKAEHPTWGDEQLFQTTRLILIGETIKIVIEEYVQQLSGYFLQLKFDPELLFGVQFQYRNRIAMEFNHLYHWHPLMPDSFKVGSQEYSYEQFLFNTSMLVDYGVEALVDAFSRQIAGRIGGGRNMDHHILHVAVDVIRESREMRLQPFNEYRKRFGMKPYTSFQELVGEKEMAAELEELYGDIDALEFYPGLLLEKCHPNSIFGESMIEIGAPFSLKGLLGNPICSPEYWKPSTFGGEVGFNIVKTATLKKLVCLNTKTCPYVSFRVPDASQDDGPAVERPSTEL
COX-1 (Cavia porcellus, UniProt H0V9X9), sequence (H0V9X9 entry or part of it): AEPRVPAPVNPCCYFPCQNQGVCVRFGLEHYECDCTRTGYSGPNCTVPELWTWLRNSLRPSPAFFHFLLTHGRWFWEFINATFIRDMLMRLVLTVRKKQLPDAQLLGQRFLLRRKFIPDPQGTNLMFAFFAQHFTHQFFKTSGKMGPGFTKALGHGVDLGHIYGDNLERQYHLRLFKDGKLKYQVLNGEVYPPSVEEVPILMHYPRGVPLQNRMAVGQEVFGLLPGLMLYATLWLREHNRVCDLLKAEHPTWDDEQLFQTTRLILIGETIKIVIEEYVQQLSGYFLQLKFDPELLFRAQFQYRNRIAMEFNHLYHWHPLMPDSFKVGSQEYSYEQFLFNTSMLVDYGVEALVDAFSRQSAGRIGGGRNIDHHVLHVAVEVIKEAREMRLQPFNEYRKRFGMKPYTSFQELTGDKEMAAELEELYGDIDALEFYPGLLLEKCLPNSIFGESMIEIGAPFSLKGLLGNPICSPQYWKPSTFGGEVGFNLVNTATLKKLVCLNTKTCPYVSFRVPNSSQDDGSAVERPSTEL

CC/C=C\C/C=C\C/C=C\C/C=C\C/C=C\C/C=C\CCC(=O)O [DHA (22:6)]
IC50 [1]: 25.6 µM | COX-2 selectivity COX-1/COX-2 [2]: 0.6 | IC50 [2]: 41 µM

O=C(c1ccccc1)c1ccc2n1CCC2C(=O)O (centres unmarked) [Ketorolac tromethamine]
IC50 [1]: 31.5 µM | COX-2 selectivity COX-1/COX-2 [2]: 0.5

CS(=O)(=O)Nc1cc2c(cc1Sc1ccc(F)cc1F)C(=O)CC2 [L-745337]
Ratio COX-2/WHMA-COX-1 at IC80 ([3]; WHMA test, Warner et al.): <0.01

Nc1ncnc2c1nc(Br)n2C1OC2COP(O)(=S)OC2C1O (centres unmarked) [Rp-8-Br-cAMPS, Rp-8-Bromo-cAMP-phosphorothioate]
effect on proliferation by antagonist in vitro ([4]; patient 2, 1 mM): no effect | increase in proliferation by antagonist in vitro ([4]; patients 1 and 3, all time points, 1 mM): approx. 2 fold | increase in TCR/CD3-induced proliferation ([5]; MAIDS T cells, higher concentrations, FIG. 5A): more than 4 fold | Increase in proliferation by Rp-8-Br-cAMPS ([5]; MAIDS mice, median, n = 11): 2.2 fold increase | effect on TCR/CD3-induced proliferation ([5]; control T cells, FIG. 5B): no stimulation was observed | Increase in proliferation by Rp-8-Br-cAMPS ([5]; control mice, median, n = 6): 1.1 fold increase | Increase in proliferation by Rp-8-Br-cAMPS ([5]; individual MAIDS mice 1-11, anti-CD3 induced proliferation): 14 fold increase and 37 fold increase (3×) and 10 fold increase and 19 fold increase (2×) and 22 fold increase and 42 fold increase and 40 fold increase and 24 fold increase | effect on anti-CD3 stimulated mixed lymph node cultures ([6]; MAIDS mice that received PBS in vivo, 0.5 mM): increased immune responses

CS(=O)(=O)c1ccc(C2=C(c3ccccc3)C(=O)OC2)cc1 [rofecoxib]
Rp-8-Br-cAMPS effect on anti-CD3 induced proliferation after in vivo treatment ([7]; MAIDS mice treated per os one week): lost | increase of T cell responses to anti-CD3 versus untreated mice [7]: approximately two-fold | average spleen weight [8]: 0.8 g | average weight of pooled lymph nodes [8]: 0.3 g | increase of anti-CD3 induced proliferation ([6]; cells from MAIDS mice 17 weeks post-infection, concentration-dependent, 1.9 to 500 nM): two- to three-fold

Cc1ccc(Cl)c(Nc2ccccc2C(=O)O)c1Cl [Meclofenemate]
IC50 [1]: 1.5 µM | COX-2 selectivity COX-1/COX-2 [2]: 0.15 | IC50 [2]: 9.7 µM

COc1ccc2c(c1)c(CC(=O)O)c(C)n2C(=O)c1ccc(Cl)cc1 [Indomethacin]
IC50 [9]: 0.00021 µM | T cell immune function, patients responding ([10]; after 14 days of treatment, 25 mg three times a day): two of seven patients had clearly elevated T cell immune function | T cell immune function, patients responding ([10]; two weeks after discontinuation, versus day 0): five of seven patients had elevated immune responsiveness | adverse events ([10]; HIV patients, 50 mg 3 times a day): epigastrial pain and dyspepsia | increase of T cell responses after in vivo treatment ([10]; patient 3, 25 mg three times a day perorally, 14 days, persisted to day 28): approximately 2.5 fold | T cell immune function after in vivo treatment ([10]; patients 1 and 2, 25 mg three times a day perorally, 14 days): did not increase their immune function | T cell proliferation, Indomethacin ([6]; MAIDS mice, median, n = 7, no anti-CD3): 1412 | T cell proliferation, Indomethacin/Anti-CD3 ([6]; MAIDS mice, median, n = 8, anti-CD3 plus indomethacin): 15601** | effect on anti-CD3 induced proliferation ([6]; control cultures of uninfected mice, indomethacin): did not alter proliferation | T cell proliferation, Indomethacin/Anti-CD3 ([6]; individual MAIDS mice, anti-CD3 plus indomethacin 50 ng/ml): 19624 and 31830 and 42244 and 9381 and 47926 and 1345 and 11579 and 8545 | T cell proliferation, Indomethacin ([6]; individual MAIDS mice, no anti-CD3, indomethacin 50 ng/ml): 2363 and 7316 and 1412 and 1129 and 265 and 335 and 4317 | effect on anti-CD3 induced proliferation ([6]; mixed lymph node cells of five MAIDS-infected mice, 72 h): strongly increased the proliferation of cells from five MAIDS-infected mice to levels comparable to that of control mice

CS(=O)(=O)Nc1ccc([N+](=O)[O-])cc1Oc1ccccc1 [nimesulide]
Ratio COX-2/WHMA-COX-1 at IC80 [3]: 0.17

Cc1ccc(-c2cc(C(F)(F)F)nn2-c2ccc(S(N)(=O)=O)cc2)cc1 [celecoxib, 4-(5-(4-methylphenyl)-3-(trifluoromethyl)-1H-pyrazol-1-yl)-benzenesulfonamide]
increase of T cell responses to anti-CD3 versus untreated mice [7]: approximately 3 fold | EC50 ([6]; Mus musculus, T-cell, read-out: concentration producing half-maximal effect (ED50) on T cell proliferation): ~0.03 µM

COc1ccc2cc(CC(=O)O)ccc2c1 [6-MNA]
IC50 [1]: 64 µM | COX-2 selectivity COX-1/COX-2 [2]: 0.7 | IC50 [2]: 93.5 µM

O=C(O)c1ccccc1O [Salicyclic acid]
IC50 [1]: > 1000 µM | IC50 [2]: > 1000 µM

Cc1cnc(NC(=O)C2=C(O)c3ccccc3S(=O)(=O)N2C)s1 [Meloxicam, 4-hydroxy-2-methyl-N-(5-methyl-2-thiazolyl)-1,1-dioxide-2H-1,2-benzothiazine-3-carboxamide]
IC50 [9]: 0.00577 µM | increase of T cell immune responses to anti-CD3 versus PBS-treated infected mice ([7]; 2.8 mg/kg/day, subcutaneous osmotic pump, 14 days, p<0.05): more than 10 fold
